These results are taken from patent US9708316B2 (BRISTOL-MYERS SQUIBB COMPANY, priority 2014, dated 2017).

Test [1] deals with T1, HIS-TGFβR1 T204D (Homo sapiens, UniProt P36897, T204D).
T1 sequence (P36897 34-503 T204D): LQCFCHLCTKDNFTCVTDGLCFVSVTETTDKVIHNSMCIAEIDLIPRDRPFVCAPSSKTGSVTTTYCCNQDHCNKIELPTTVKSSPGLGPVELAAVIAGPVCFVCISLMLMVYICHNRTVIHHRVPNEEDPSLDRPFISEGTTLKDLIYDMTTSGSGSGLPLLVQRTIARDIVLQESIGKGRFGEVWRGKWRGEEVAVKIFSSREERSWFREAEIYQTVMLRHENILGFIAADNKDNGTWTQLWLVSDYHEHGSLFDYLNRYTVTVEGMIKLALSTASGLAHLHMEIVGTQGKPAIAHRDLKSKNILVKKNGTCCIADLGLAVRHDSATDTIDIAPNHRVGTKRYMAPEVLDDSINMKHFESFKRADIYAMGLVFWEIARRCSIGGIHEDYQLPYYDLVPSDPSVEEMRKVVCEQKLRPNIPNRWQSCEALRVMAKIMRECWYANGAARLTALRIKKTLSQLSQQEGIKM
Description: HTRF probe-displacement assay, HIS-TGFβR1 T204D. The format is binding. The note with it: read-out: TGFβR1 (μM) IC50. A general note: In TR-FRET formats the signal depends on donor and acceptor labels being close together.

In test [2] the target is HIS-TGFβR2 WT (Homo sapiens, UniProt P37173). Description: HTRF probe-displacement assay, HIS-TGFβR2 WT. The class given is binding.
HIS-TGFβR2 WT, sequence (P37173 23-567): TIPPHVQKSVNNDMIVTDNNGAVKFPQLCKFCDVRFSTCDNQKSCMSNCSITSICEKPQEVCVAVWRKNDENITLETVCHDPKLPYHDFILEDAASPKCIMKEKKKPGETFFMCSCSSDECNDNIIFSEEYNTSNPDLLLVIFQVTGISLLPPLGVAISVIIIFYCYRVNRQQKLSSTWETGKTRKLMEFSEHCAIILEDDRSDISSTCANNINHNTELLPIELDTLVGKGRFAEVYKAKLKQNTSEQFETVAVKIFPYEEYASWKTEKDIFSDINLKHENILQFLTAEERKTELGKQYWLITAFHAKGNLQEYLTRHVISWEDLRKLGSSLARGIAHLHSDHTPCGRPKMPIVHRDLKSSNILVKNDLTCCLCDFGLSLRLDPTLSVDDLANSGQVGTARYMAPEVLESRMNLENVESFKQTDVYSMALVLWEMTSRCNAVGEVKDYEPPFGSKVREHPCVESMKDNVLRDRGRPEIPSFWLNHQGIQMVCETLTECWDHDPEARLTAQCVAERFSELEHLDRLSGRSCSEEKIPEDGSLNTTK

One may read the IC50 as the concentration that inhibits the measured activity by half. For the compound `COc1ccc(-c2c(-c3ccnc(NC(=O)CN4CCOCC4)c3)[nH]c3cc(Cl)cnc23)cn1` [Example 290, N-(4-(6-Chloro-3-(6-methoxypyridin-3-yl)-1H-pyrrolo[3,2-b]pyridin-2-yl)pyridin-2-yl)-2-morpholinoacetamide], the half-inhibitory concentration (IC50) in test [1] was determined as 0.002 µM; in test [2], 1.12 µM.
As for `COc1ccc(-c2c(-c3ccnc(NC(C)=O)c3)[nH]c3cc(N4CCC[C@@H]4CO)cnc23)nc1` [Example 163, (R)-N-(4-(6-(2-(Hydroxymethyl)pyrrolidin-l-yl)-3-(5-methoxypyridin-2-yl)-1H-pyrrolo[3,2-b]pyridin-2-yl)pyridin-2-yl)acetamide], the figures for the IC50 in test [1] and in test [2] were 0.0304 µM and > 15 µM, respectively.
The matching figures for `COc1cnc2c(-c3nc(C)ccc3F)c(-c3ccnc(NC(C)=O)c3)[nH]c2c1` [Example 111, N-(4-(3-(3-Fluoro-6-methylpyridin-2-yl)-6-methoxy-1H-pyrrolo[3,2-b]pyridin-2-yl)pyridin-2-yl)acetamide]: 0.002 µM and 2.42 µM.
The matching figures for `CC(=O)Nc1cc(-c2[nH]c3c(CCO)ccnc3c2-c2cccc(C(F)F)n2)ccn1` [Example 155, N-(4-{3-[6-(Difluoromethyl)pyridin-2-yl]-7-(2-hydroxyethyl)-1H-pyrrolo[3,2-b]pyridin-2-yl}pyridin-2-yl)acetamide]: 0.001 µM and 3.47 µM.
Regarding `CC(=O)Nc1cc(-c2[nH]c3cccnc3c2-c2cc(C)c(F)cn2)ccn1` [Example 24, N-{4-[3-(5-Fluoro-4-methylpyridin-2-yl)-1H-pyrrolo[3,2-b]pyridin-2-yl]pyridin-2-yl}acetamide], the IC50 came out at 0.018 µM in test [1] and 0.21 µM in test [2].
`COc1cnc2c(-c3ccc(F)c(C)n3)c(-c3ccnc(NC(C)=O)c3)[nH]c2c1` [Example 51, N-{4-[3-(5-Fluoro-6-methylpyridin-2-yl)-6-methoxy-1H-pyrrolo[3,2-b]pyridin-2-yl]pyridin-2-yl}acetamide]: the figures for the IC50 in test [1] and in test [2] were 0.002 µM and 0.61 µM, respectively.
For `CC(=O)Nc1cc(-c2[nH]c3cccnc3c2-c2cnc(F)c(F)c2)ccn1` [Example 10, N-{4-[3-(5,6-Difluoropyridin-3-yl)-1H-pyrrolo[3,2-b]pyridin-2-yl]pyridin-2-yl}acetamide], the IC50 in test [1] stood at 0.057 µM; in test [2], 0.01 µM.
`CC(=O)Nc1cc(-c2[nH]c3c(C)ccnc3c2-c2nc(C(F)(F)F)cs2)ccn1` [Example 212, N-(4-(7-Methyl-3-(4-(trifluoromethyl)thiazol-2-yl)-1H-pyrrolo[3,2-b]pyridin-2-yl)pyridin-2-yl)acetamide]: the figures for the IC50 in test [1] and in test [2] were 0.0005 µM and 8.82 µM, respectively.
Regarding `CC(=O)Nc1cc(-c2[nH]c3c(C4CCOCC4)ccnc3c2-c2cccc(C(F)F)n2)ccn1` [Example 135, N-(4-{3-[6-(Difluoromethyl)pyridin-2-yl]-7-(oxan-4-yl)-1H-pyrrolo[3,2-b]pyridin-2-yl}pyridin-2-yl)acetamide], the values for the IC50 in test [1] and in test [2] were 0.003 µM and > 15 µM, respectively.
Consider `COc1ccc(-c2c(-c3ccnc(NC(C)=O)c3)[nH]c3cc(C#N)cnc23)cn1` [Example 78, N-(4-(6-Cyano-3-(6-methoxypyridin-3-yl)-1H-pyrrolo[3,2-b]pyridin-2-yl)pyridin-2-yl)acetamide], for which the IC50 in test [1] was 0.003 µM; in test [2], 0.16 µM.
On to `COc1ccc(-c2c(-c3ccnc(N)c3)[nH]c3cc(Cl)cnc23)cn1` [Example 289, 4-(6-Chloro-3-(6-methoxypyridin-3-yl)-1H-pyrrolo[3,2-b]pyridin-2-yl)pyridin-2-amine], for which the figures for the IC50 in test [1] and in test [2] were 0.002 µM and 0.794 µM, respectively.
On to `COc1cnc2c(-c3cccc(C)n3)c(-c3ccnc(NC(=O)CN4CCN(CCO)CC4)c3)[nH]c2c1` [Example 122, 2-[4-(2-Hydroxyethyl)piperazin-1-yl]-N-{4-[6-methoxy-3-(6-methy 1pyridin-2-yl)-1H-pyrrolo[3,2-b]pyridin-2-yl]pyridin-2-yl}acetamide], for which the IC50 in test [1] is 0.001 µM; in test [2], > 15 µM.
Turning to `O=C(CN1CCC(O)CC1)Nc1cc(-c2[nH]c3cc(Cl)cnc3c2-c2ccc(F)cn2)ccn1` [Example 244, N-(4-(6-Chloro-3-(5-fluoropyridin-2-yl)-1H-pyrrolo[3,2-b]pyridin-2-yl)pyridin-2-yl)-2-(4-hydroxypiperidin-1-yl)acetamide], the IC50 in test [1] came to 0.003 µM; in test [2], 7.82 µM.
`CC(=O)Nc1cc(-c2[nH]c3cc(Cl)cnc3c2-c2ncc(C)s2)ccn1` [Example 169]: the IC50 in test [1] was found to be 0.0023 µM; in test [2], 0.882 µM.
For `CC(=O)Nc1cc(-c2[nH]c3cccnc3c2-c2ccc(Cl)nc2)ccn1` [Example 9, N-{4-[3-(6-Chloropyridin-3-yl)-1H-pyrrolo[3,2-b]pyridin-2-yl]pyridin-2-yl}acetamide], in that order: 0.023 µM and 0.33 µM.
For `COc1ccc(-c2c(-c3ccnc(NC(C)=O)c3)[nH]c3cc(Cl)cnc23)nc1Cl` [Example 180, N-(4-(6-Chloro-3-(6-chloro-5-methoxypyridin-2-yl)-1H-pyrrolo[3,2-b]pyridin-2-yl)pyridin-2-yl)acetamide], the IC50 in test [1] was 0.0274 µM; in test [2], > 15 µM.
As for `CC(=O)Nc1cc(-c2[nH]c3c(C(C)O)ccnc3c2-c2cccc(C(F)F)n2)ccn1` (centres unmarked) [Example 143, N-(4-{3-[6-(Difluoromethyl)pyridin-2-yl]-7-(1-hydroxyethyl)-1H-pyrrolo[3,2-b]pyridin-2-yl}pyridin-2-yl)acetamide], the figures for the IC50 in test [1] and in test [2] were 0.001 µM and 2.53 µM, respectively.
For `CC(=O)Nc1cc(-c2[nH]c3cc(Cl)cnc3c2-c2nc(C)ns2)ccn1` [Example 179, N-(4-(6-chloro-3-(3-methyl-1,2,4-thiadiazol-5-yl)-1H-pyrrolo[3,2-b]pyrdin-2-yl)pyridin-2-yl)acetamide], in that order: 0.058 µM and > 15 µM.
For `COc1ccc(-c2c(-c3ccnc(NC(=O)CN4CCN(CCO)CC4)c3)[nH]c3cccnc23)cn1` [Example 288, 2-(4-(2-Hydroxyethyl)piperazin-1-yl)-N-(4-(3-(6-methoxypyridin-3-yl)-1H-pyrrolo[3,2-b]pyridin-2-yl)pyridin-2-yl)acetamide], the figures for the IC50 in test [1] and in test [2] were 0.002 µM and 0.487 µM, respectively.
Turning to `CC(=O)Nc1cc(-c2[nH]c3c(-c4ccnn4C)ccnc3c2-c2cccc(C(F)F)n2)ccn1` [Example 129, N-(4-{3-[6-(Difluoromethyl)pyridin-2-yl]-7-(1-methyl-1H-pyrazol-5-yl)-1H-pyrrolo[3,2-b]pyridin-2-yl}pyridin-2-yl)acetamide], the IC50 was 0.007 µM in test [1] and > 15 µM in test [2].
Take `COc1cnc2c(-c3ccc(Cl)cn3)c(-c3ccnc(NC(C)=O)c3)[nH]c2c1` [Example 50, N-{4-[3-(5-Chloropyridin-2-yl)-6-methoxy-1H-pyrrolo[3,2-b]pyridin-2-yl]pyridin-2-yl}acetamide]: the results for the IC50 in test [1] and in test [2] were 0.003 µM and 6.57 µM, respectively.
With `COc1ccc(-c2c(-c3ccnc(NC(=O)CN4CCN(C)CC4)c3)[nH]c3cc(OC)cnc23)nc1` [Example 119, N-{4-[6-Methoxy-3-(5-methoxypyridin-2-yl)-1H-pyrrolo[3,2-b]pyridin-2-yl]pyridin-2-yl}-2-(4-methylpiperazin-1-yl)acetamide], the IC50 in test [1] is < 0.001 µM; in test [2] it was > 15 µM.
As for `CC(=O)Nc1cc(-c2[nH]c3c(CN(C)C)ccnc3c2-c2cccc(C(F)F)n2)ccn1` [Example 141, N-(4-{3-[6-(Difluoromethyl)pyridin-2-yl]-7-[(dimethylamino)methyl]-1H-pyrrolo[3,2-b]pyridin-2-yl}pyridin-2-yl)acetamide], the IC50 in test [1] was 0.003 µM; in test [2], 27.3 µM.
Take `CC(=O)Nc1cc(-c2[nH]c3cc(C)cnc3c2-c2nc(C#N)cs2)ccn1` [Example 224, N-(4-(3-(4-Cyanothiazol-2-yl)-6-methyl-1H-pyrrolo[3,2-b]pyridin-2-yl)pyridin-2-yl)acetamide]: the IC50 in test [1] was found to be 0.0012 µM; in test [2], 0.544 µM.
On to `CC(=O)N1CCN(CC(=O)Nc2cc(-c3[nH]c4cc(Cl)cnc4c3-c3ccc(F)cn3)ccn2)CC1` [Example 248, 2-(4-Acetylpiperazin-1-yl)-N-(4-(6-chloro-3-(5-fluoropyridin-2-yl)-1H-pyrrolo[3,2-b]pyridin-2-yl)pyridin-2-yl)acetamide], for which the IC50 was 0.002 µM in test [1] and 14.5 µM in test [2].
For `CC(=O)Nc1cc(-c2[nH]c3cccnc3c2-c2nc(C(F)F)cs2)ccn1` [Example 200, N-(4-(3-(4-(Difluoromethyl)thiazol-2-yl)-1H-pyrrolo[3,2-b]pyridin-2-yl)pyridin-2-yl)acetamide], the IC50 is 0.0007 µM in test [1] and 0.548 µM in test [2].
The matching figures for `CC(=O)Nc1cc(-c2[nH]c3cccnc3c2-c2ccc(C#N)nc2)ccn1` [Example 12, N-{4-[3-(6-Cyanopyridin-3-yl)-1H-pyrrolo[3,2-b]pyridin-2-yl]pyridin-2-yl}acetamide]: 0.058 µM and 1.31 µM.
The matching figures for `COc1ccc(-c2c(-c3ccnc(NC(C)=O)c3)[nH]c3c(C(O)C(C)C)ccnc23)cn1` (centres unmarked) [Example 300, N-(4-(7-(1-Hydroxy-2-methylpropyl)-3-(6-methoxypyridin-3-yl)-1H-pyrrolo[3,2-b]pyridin-2-yl)pyridin-2-yl)acetamide]: 0.003 µM and 0.017 µM.
